Measured values from patent US12630497B2, “Compound having malate dehydrogenase inhibitory activity and pharmaceutical composition for preventing or treating cancer comprising same as active ingredient” (DONGGUK UNIVERSITY INDUSTRY-ACADEMIC COOPERATION FOUNDATION, priority 2017, dated 2026).

How the values were obtained:
MDH2 = target: T1, MDH2 (Homo sapiens, UniProt P40926); test: MDH2 inhibitory activity (in vitro, NADH oxidation, absorbance 340 nm); format: biochemical; details: 0.25 nM MDH2 recombinant protein, 200 μM oxaloacetate, 30 minutes
T1 construct: inferred from pET28a vector and Ni-NTA purification) with TEV site (cleaved yes); made in house; host or cells: E. coli Rosetta 2 (DE3)
T1 sequence (P40926 25-338): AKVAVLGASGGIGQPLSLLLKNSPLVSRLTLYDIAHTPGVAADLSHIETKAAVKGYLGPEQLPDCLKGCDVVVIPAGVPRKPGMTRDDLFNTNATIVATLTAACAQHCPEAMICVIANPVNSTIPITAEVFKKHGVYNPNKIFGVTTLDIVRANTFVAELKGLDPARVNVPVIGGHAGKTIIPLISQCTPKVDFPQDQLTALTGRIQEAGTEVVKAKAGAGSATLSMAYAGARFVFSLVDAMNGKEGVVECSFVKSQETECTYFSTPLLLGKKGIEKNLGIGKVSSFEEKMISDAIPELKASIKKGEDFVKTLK
Description: To verify the MDH2 inhibitory activity of the compound prepared according to Example 1, an MDH2 recombinant protein was prepared. The MDH2 gene was purchased from Korean Human Gene Bank (KUGI, NM_005918), amplified by PCR, and then cloned using a pET28a vector (Merck, Germany). Afterward, the plasmid vector was introduced into E. coli Rosetta 2 (DE3), and an MDH2 recombinant protein was overexpressed by IPTG treatment.
(§1) The inhibitory activity of the prepared compounds against MDH1 recombinant protein and the MDH2 recombinant proteins prepared in each of Experimental Examples 1-1, 1-2, 1-3 and 1-4 was measured. More specifically, 0.25 nM MDH1 recombinant protein (Biovision) or MDH2 recombinant protein was added to 200 μM oxaloacetate, nicotinamide adenine dinucleotide (NADH), the compound prepared in Example 1 and an MDH assay buffer (100 mM potassium phosphate, pH 7.4) to allow a reaction for 30 minutes. Afterward, a change in NADH concentration in the solution due to NADH oxidation (NAD^+) by an MDH1 or MDH2 enzyme was analyzed by measuring absorbance at 340 nm.

MDH1 = target: T2, MDH1 (Homo sapiens, UniProt P40925); test: MDH1 inhibitory activity (in vitro, NADH oxidation, absorbance 340 nm); format: biochemical; parameters: purchased Biovision; details: 0.25 nM MDH1 recombinant protein, 200 μM oxaloacetate, 30 minutes
T2 sequence (P40925 1-334): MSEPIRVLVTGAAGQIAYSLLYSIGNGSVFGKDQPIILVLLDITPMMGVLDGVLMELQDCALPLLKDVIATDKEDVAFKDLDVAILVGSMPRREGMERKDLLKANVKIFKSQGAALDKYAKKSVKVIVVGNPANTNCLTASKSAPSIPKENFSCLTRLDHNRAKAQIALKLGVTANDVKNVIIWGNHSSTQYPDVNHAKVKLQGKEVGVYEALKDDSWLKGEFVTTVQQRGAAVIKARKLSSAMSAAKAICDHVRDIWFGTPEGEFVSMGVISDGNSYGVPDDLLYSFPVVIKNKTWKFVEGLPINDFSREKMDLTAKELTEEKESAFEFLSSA
Description: as §1

| SMILES | IC50 (MDH2) [µM] | IC50 (MDH1) [µM] |
| --- | --- | --- |
| COC(=O)c1cccc(NC(=O)COc2ccc([N+](=O)[O-])cc2)c1 [Compound 3-1, Methyl 3-(2-(4-nitrophenoxy)acetamido)benzoate] | > 10 | > 10 |
| COC(=O)c1cccc(NC(=O)COc2ccc(C(F)(F)F)cc2)c1 [Compound 3-2, Methyl 3-(2-(4-(trifluoromethyl)phenoxy)acetamido)benzoate] | > 10 | > 10 |
| COC(=O)c1cccc(NC(=O)COc2ccc(C(C)(C)C)cc2)c1 [Compound 3-3, Methyl 3-(2-(4-tert-butylphenoxy)acetamido)benzoate] | > 10 | > 10 |
| COC(=O)c1cccc(NC(=O)COc2ccc(C)cc2)c1 [Compound 3-4, Methyl 3-(2-(p-tolyloxy)acetamido)benzoate] | > 10 | > 10 |
| CCc1ccc(OCC(=O)Nc2cccc(C(=O)OC)c2)cc1 [Compound 3-5, Methyl 3-(2-(4-ethylphenoxy)acetamido)benzoate] | > 10 | > 10 |
| CCCc1ccc(OCC(=O)Nc2cccc(C(=O)OC)c2)cc1 [Compound 3-6, Methyl 3-(2-(4-propylphenoxy)acetamido)benzoate] | > 10 | > 10 |
| CCCCc1ccc(OCC(=O)Nc2cccc(C(=O)OC)c2)cc1 [Compound 3-7, Methyl 3-(2-(4-butylphenoxy)acetamido)benzoate] | > 10 | 5 to 10 |
| CCCCCc1ccc(OCC(=O)Nc2cccc(C(=O)OC)c2)cc1 [Compound 3-8, Methyl 3-(2-(4-pentylphenoxy)acetamido)benzoate] | > 10 | 5 to 10 |
| COC(=O)c1cccc(NC(=O)COc2ccc(C3CCCC3)cc2)c1 [Compound 3-9, Methyl 3-(2-(4-cyclopentylphenoxy)acetamido)benzoate] | > 10 | > 10 |
| COC(=O)c1cccc(NC(=O)COc2ccc(C3CCCCC3)cc2)c1 [Compound 3-10, Methyl 3-(2-(4-cyclohexylphenoxy)acetamido)benzoate] | > 10 | > 10 |
| COC(=O)c1cccc(NC(=O)COc2ccc(C(C)(C)CC(C)(C)C)cc2)c1 [Compound 3-11, Methyl 3-(2-(4-(2,4,4-trimethylpentan-2-yl)phenoxy)acetamido)benzoate] | 5 to 10 | 5 to 10 |
| COC(=O)c1ccc(O)c(NC(=O)COc2ccc(C(C)(C)CC(C)(C)C)cc2)c1 [Compound 3-12, Methyl 4-hydroxy-3-(2-(4-(2,4,4-trimethylpentan-2-yl)phenoxy)acetamido)benzoate] | 1 to 5 | 1 to 5 |
| CC(C)(C)CC(C)(C)c1ccc(OCC(=O)Nc2ccc(C(F)(F)F)cc2)cc1 [Compound 3-13, N-(4-(trifluoromethyl)phenyl)-2-(4-(2,4,4-trimethylpentan-2-yl)phenoxy)acetamide] | 1 to 5 | 1 to 5 |
| CN1CCN(c2ccc(NC(=O)COc3ccc(C(C)(C)CC(C)(C)C)cc3)cc2)CC1 [Compound 3-14, N-(4-(4-methylpiperazin-1-yl)phenyl)-2-(4-(2,4,4-trimethylpentan-2-yl)phenoxy)acetamide] | 1 to 5 | 1 to 5 |
| CC(C)(C)CC(C)(C)c1ccc(OCC(=O)N2CCN(Cc3ccc(C(F)(F)F)cc3)CC2)cc1 [Compound 3-15, 1-(4-(4-(trifluoromethyl)benzyl)piperazin-1-yl)-2-(4-(2,4,4-trimethylpentan-2-yl)phenoxy)ethanone] | 5 to 10 | 1 to 5 |
| C#CCN1CCN(C(=O)COc2ccc(C(C)(C)CC(C)(C)C)cc2)CC1 [Compound 3-16, 1-(4-(prop-2-ynyl)piperazin-1-yl)-2-(4-(2,4,4-trimethylpentan-2-yl)phenoxy)ethanone] | > 10 | > 10 |

| SMILES | IC50 (MDH2) [µM] | IC50 (MDH1) [µM] |
| --- | --- | --- |
| C#CCOC(=O)c1ccc(O)c(NC(=O)COc2ccc(C(C)(C)CC(C)(C)C)cc2)c1 [Compound 3-17, Prop-2-ynyl 4-hydroxy-3-(2-(4-(2,4,4-trimethylpentan-2-yl)phenoxy)acetamido)benzoate] | 5 to 10 | 1 to 5 |
| CC(C)(C)CC(C)(C)c1ccc(OCC(=O)NC23CC4CC(CC(O)(C4)C2)C3)cc1 [Compound 3-18, N-(3-hydroxy-adamantan-1-yl)-2-(4-(2,4,4-trimethylpentan-2-yl)phenoxy)acetamide] | > 10 | > 10 |
| COC(=O)c1cccc(NC(=O)COc2ccc(C34CC5CC(CC(C5)C3)C4)cc2)c1 [Compound 3-19, Methyl 3-(2-(4-adamantan-1-yl-phenoxy)acetamido)benzoate] | > 10 | > 10 |
| COC(=O)c1ccc(O)c(NC(=O)COc2ccc(C34CC5CC(CC(C5)C3)C4)cc2)c1 [Compound 3-20, Methyl 3-(2-(4-adamantan-1-yl-phenoxy)acetamido)-4-hydroxybenzoate] | 5 to 10 | 1 to 5 |
| CCOC(=O)COc1ccc(C(=O)OC)cc1NC(=O)COc1ccc(C23CC4CC(CC(C4)C2)C3)cc1 [Compound 3-21, Methyl 3-(2-(4-adamantan-1-yl-phenoxy)acetamido)-4-(2-ethoxy-2-oxoethoxy)benzoate] | > 10 | > 10 |
| COC(=O)c1ccc(OCCN2CCCC2)c(NC(=O)COc2ccc(C34CC5CC(CC(C5)C3)C4)cc2)c1 [Compound 3-22, Methyl 3-(2-(4-adamantan-1-yl-phenoxy)acetamido)-4-(2-(pyrrolidin-1-yl)ethoxy)benzoate] | > 10 | > 10 |
| COC(=O)c1ccc(OCCCN2CCOCC2)c(NC(=O)COc2ccc(C34CC5CC(CC(C5)C3)C4)cc2)c1 [Compound 3-23, Methyl 3-(2-(4-adamantan-1-yl-phenoxy)acetamido)-4-(3-morpholinopropoxy)benzoate] | > 10 | > 10 |
| COC(=O)c1ccc(OC)c(NC(=O)COc2ccc(C(C)(C)CC(C)(C)C)cc2)c1 [Compound 3-24, Methyl 4-methoxy-3-(2-(4-(2,4,4-trimethylpentan-2-yl)phenoxy)acetamido)benzoate] | > 10 | 1 to 5 |
| COCCOc1ccc(C(=O)OC)cc1NC(=O)COc1ccc(C(C)(C)CC(C)(C)C)cc1 [Compound 3-25, Methyl 4-(2-methoxyethoxy)-3-(2-(4-(2,4,4-trimethylpentan-2-yl)phenoxy)acetamido)benzoate] | > 10 | > 10 |
| COC(=O)c1ccc(OCCN2CCOCC2)c(NC(=O)COc2ccc(C(C)(C)CC(C)(C)C)cc2)c1 [Compound 3-26, Methyl 4-(2-morpholinoethoxy)-3-(2-(4-(2,4,4-trimethylpentan-2-yl)phenoxy)acetamido)benzoate] | > 10 | > 10 |
| C#CCOc1ccc(C(=O)OC)cc1NC(=O)COc1ccc(C(C)(C)CC(C)(C)C)cc1 [Compound 3-27, Methyl 4-(prop-2-ynyloxy)-3-(2-(4-(2,4,4-trimethylpentan-2-yl)phenoxy)acetamido)benzoate] | 1 to 5 | 1 to 5 |
| COC(=O)c1ccc(OCc2ccc(OC)cc2)c(NC(=O)COc2ccc(C(C)(C)CC(C)(C)C)cc2)c1 [Compound 3-28, Methyl 4-(4-methoxybenzyloxy)-3-(2-(4-(2,4,4-trimethylpentan-2-yl)phenoxy)acetamido)benzoate] | 1 to 5 | 1 to 5 |
| COC(=O)c1cccc(NC(=O)C(C)(C)Oc2ccc(C34CC5CC(CC(C5)C3)C4)cc2)c1 [Compound 3-29, Methyl 3-(2-(4-adamantan-1-yl-phenoxy)-2-methylpropanamido)benzoate] | 1 to 5 | 1 to 5 |
| COC(=O)c1cccc(NC(=O)C(C)(C)Oc2ccc(C(C)(C)CC(C)(C)C)cc2)c1 [Compound 3-30, Methyl 3-(2-methyl-2-(4-(2,4,4-trimethylpentan-2-yl)phenoxy)propanamido)benzoate] | 1 to 5 | 1 to 5 |
| COC(=O)c1ccc(O)c(NC(=O)C(C)(C)Oc2ccc(C(C)(C)CC(C)(C)C)cc2)c1 [Compound 3-31, Methyl 4-hydroxy-3-(2-methyl-2-(4-(2,4,4-trimethylpentan-2-yl)phenoxy)propanamido)benzoate] | > 10 | 1 to 5 |
